Here are results for nine molecules from patent publication US20240034729A9, “HETEROCYCLIC COMPOUND, INTERMEDIATE, PREPARATION METHOD THEREFOR AND APPLICATION THEREOF” (WUHAN LL SCIENCE AND TECHNOLOGY DEVELOPMENT CO., LTD., priority 2018, published 2024).

In general, IC50 refers to the point on the concentration scale where inhibition reaches its midpoint. For orientation: CC50 means the concentration giving 50% cytotoxicity.

The target of data set [1] is hP2X3 (human purinergic P2X receptor subtype 3) (Homo sapiens (Human), UniProt P56373). The data set is described as follows: FLIPR calcium assay, hP2X3 expressed in HEK293 cells. The format is cell-based. The conditions noted are these: read-out: P2X3 IC50.
Chain of hP2X3 (human purinergic P2X receptor subtype 3) (P56373 whole entry): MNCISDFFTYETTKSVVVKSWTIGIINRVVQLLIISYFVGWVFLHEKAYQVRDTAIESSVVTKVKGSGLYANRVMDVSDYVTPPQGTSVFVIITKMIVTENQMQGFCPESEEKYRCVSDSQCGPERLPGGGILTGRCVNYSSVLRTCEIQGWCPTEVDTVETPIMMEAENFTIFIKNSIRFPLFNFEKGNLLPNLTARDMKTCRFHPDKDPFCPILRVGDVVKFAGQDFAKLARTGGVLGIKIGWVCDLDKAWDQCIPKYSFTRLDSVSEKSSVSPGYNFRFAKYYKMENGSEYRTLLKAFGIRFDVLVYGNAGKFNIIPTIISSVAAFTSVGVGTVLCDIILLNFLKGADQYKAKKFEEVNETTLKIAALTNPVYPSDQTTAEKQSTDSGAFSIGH
For data set [2], the target named is hP2X2/3 (heterodimeric receptors formed by human purinergic P2X receptors subtype 2 and subtype 3) (Homo sapiens (Human), UniProt P56373+Q9UBL9). Nature of the data set: FLIPR calcium assay, hP2X2/3 expressed in HEK293 cells (P2X2/3 receptor selectivity). The format is cell-based. The conditions noted are these: for IC50: HEK293 cells expressing hP2X2/3, agonist BZ-ATP 5 μM, unit inferred.
Chain of hP2X2/3 (heterodimeric receptors formed by human purinergic P2X receptors subtype 2 and subtype 3) (P56373 whole entry): as above
Chain of hP2X2/3 (heterodimeric receptors formed by human purinergic P2X receptors subtype 2 and subtype 3) (Q9UBL9 whole entry): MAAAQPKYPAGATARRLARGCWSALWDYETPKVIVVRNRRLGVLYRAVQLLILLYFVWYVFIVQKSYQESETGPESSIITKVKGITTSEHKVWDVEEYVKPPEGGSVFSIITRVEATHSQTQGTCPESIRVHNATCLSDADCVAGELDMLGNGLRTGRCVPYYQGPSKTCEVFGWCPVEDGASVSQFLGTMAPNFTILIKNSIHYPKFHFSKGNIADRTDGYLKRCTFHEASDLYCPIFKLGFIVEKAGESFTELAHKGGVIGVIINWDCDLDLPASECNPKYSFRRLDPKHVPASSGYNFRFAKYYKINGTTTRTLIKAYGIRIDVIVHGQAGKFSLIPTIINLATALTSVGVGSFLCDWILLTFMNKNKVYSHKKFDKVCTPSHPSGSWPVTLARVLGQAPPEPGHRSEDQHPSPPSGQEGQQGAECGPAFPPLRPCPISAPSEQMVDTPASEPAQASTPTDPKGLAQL

The nature of data set [3]: In vitro cytotoxicity assay, CCK-8 method. The class given is cell-based. As to conditions: human, HepG2 cells. As for the experimental part:
In vitro cytotoxicity assay for the compounds disclosed herein was performed in HepG2 cells using the CCK-8 method. HepG2 cells (Beina Bio) in the logarithmic growth phase were collected, the concentration of cell suspension was adjusted, and then the cells were plated on a 96-well cell culture plate at 50,000 cells/well. The cells were then incubated overnight in a cell incubator of 5% […] at 37° C., and after 80-90% cell confluence was achieved, test compounds or vehicle (DMSO) at various concentration gradients were added after medium change. The plate was incubated in a cell incubator of 5% […] at 37° C. for 48 h. After the treatment, the medium in the plate was discarded. The plate was washed twice with PBS, added with CCK-8 working solution (Beyotime) at 100 μL per well, and then incubated at 37° C. for 1.5 h away from light. Absorbance at OD450nm was measured for each well on a microplate reader, and CC50 value of each compound was analyzed and calculated.
(Tetrazolium assays rely on reduction of a dye to a coloured formazan, in cell work by metabolically active cells.)

The nature of data set [4]: In vitro metabolic stability, human liver microsome. The format is in vitro ADME. As to conditions: liver microsomes, 1 mg/mL liver microsome protein, 37° C., NA = essentially not metabolized, read-out: T1/2 in human liver microsome. The protocol:
(§1) The in vitro metabolic stability of the compounds disclosed herein was determined through incubation of liver microsomes of various species. […] At each time point, 100 μL of the reaction mixture was added into a centrifuge tube containing 400 μL of internal standard working solution (containing a 200 ng/mL solution of dexamethasone, diclofenac, tolbutamide and labetalol in acetonitrile) precooled at 0° C. so as to terminate the reaction, and the mixture was then centrifuged at 10,000 g for 10 min at 4° C. The supernatant was collected for LC-MS assay so as to obtain the values of in vitro metabolic half-life of the test compounds in liver microsomes of various species.

Data set [5] can be described thus: In vitro metabolic stability, rat liver microsome. As to conditions: liver microsomes, 1 mg/mL liver microsome protein, 37° C., NA = essentially not metabolized, read-out: T1/2 in rat liver microsome. The class given is in vitro ADME. The protocol: as §1
Data set [6] is described as follows: In vitro metabolic stability, guinea pig liver microsome. The class given is in vitro ADME. As to conditions: liver microsomes, 1 mg/mL liver microsome protein, 37° C., NA = essentially not metabolized, read-out: T1/2 in guinea pig liver microsome. The protocol: The in vitro metabolic stability of the compounds disclosed herein was determined through incubation of liver microsomes of various species. A proper amount of test compound was added into a liver microsome reaction system (1 mg/mL liver microsome protein, 25 U/mL glucose-6 phosphate dehydrogenase, 1 mM NADP, 6 mM D-glucose 6-phosphate and 5 mM MgCl2), and then the mixture was incubated in a water bath kettle at 37° C. to start the reaction. At each time point, 100 μL of the reaction mixture was added into a centrifuge tube containing 400 μL of internal standard working solution (containing a 200 ng/mL solution of dexamethasone, diclofenac, tolbutamide and labetalol in acetonitrile) precooled at 0° C. so as to terminate the reaction, and the mixture was then centrifuged at 10,000 g for 10 min at 4° C. The supernatant was collected for LC-MS assay so as to obtain the values of in vitro metabolic half-life of the test compounds in liver microsomes of various species.
In general terms: Microsomes from liver hold many membrane-bound enzymes, among them those of drug oxidation.

In data set [7] the test system is Male Dunkin Hartley guinea pigs. The data set is described as follows: Citric acid only cough model. The format is in vivo, guinea pig. Further details: Mean cough latency: unit not given beside the values. As to conditions: for inhibition in vivo at 30 mg/kg: Cavia porcellus; for Mean number of coughs: 17.5% citric acid. As for the experimental part: Male Dunkin Hartley guinea pigs (300-350 g) were placed in an animal atomization box, and then the door of the atomization box was closed while the ultrasonic atomizer (Guangdong Yuehua) was turned on. 17.5% citric acid gas was introduced into the atomization box at a maximum atomization rate (about 2 mL/min) for 20 s, and coughs of the animals within 10 min were continuously observed from the time of the start of atomization. During the 10-min observation, coughs of the animals were counted manually, and the number of coughs were judged according to cough postures of the guinea pigs, such as abdominal twitching, mouth opening, and head inclining downward abruptly. The number of coughs during the first 5 min and that during 10 min were recorded, and the cough latency of the guinea pigs, namely the time from the initiation of citric acid induction to the appearance of the first cough, was also recorded.

For another data set, the system named is Male SD rats. Nature of the data set: Two-bottle dysgeusia test (quinine water vs normal water). The class given is in vivo, rat. The conditions noted are these: 20 mg/kg. The protocol: All drinking water bottles were removed out 20 h before the start of the formal experiment, and all the animals were deprived of water until the start of the experiment. In the experiment, all the animals were randomly grouped and then subjected to a single intraperitoneal injection of a test compound or a vehicle before water was resupplied. The administration time was determined according to the Tmax of the test compound. Then the animals were placed in separate cages, and two bottles of drinking water (one bottle of normal drinking water and one bottle of 0.3 mM quinine water) were provided.

Where [8] appears, read: before administration (baseline of the group).

SMILES strings stand for the structures. Like-named read-outs stand apart in the source and are kept apart here. Where only a bound is given, the exact number is not on record here.

Regarding `COC(=O)Nc1cc(F)c(-c2nc3cc(C)ccn3c2C[C@H]2CN(C(=O)OC)CCO2)c(F)c1` [Compound 3, methyl (S)-2-((2-(2,6-difluoro-4-(methoxycarbonylamino)phenyl)-7-methylimidazo[1,2-a]pyridin-3-yl)-methyl)morpholine-4-carboxylate], the IC50 is 0.01 to 0.05 µM in data set [1] and above 60 µM in data set [2]. In addition, the Folds of selectivity result in data set [2] is given as “A (key: A: folds of selectivity >1000; B: 200< folds of selectivity ≤1000; C: folds of selectivity ≤200)”. Also, the 50% cytotoxic concentration (CC50) at 48 h in data set [3] worked out at 59.3 µM. For the same molecule, the half-life is 260 min in data set [4], 28.7 min in data set [5] and 50.5 min in data set [6].
Turning to `COC(=O)N1CCO[C@@H](Cc2c(-c3c(F)cc(-c4ccc[nH]4)cc3F)nc3cc(C)ccn23)C1` [Compound 4, methyl (S)-2-((2-(2,6-difluoro-4-(1H-pyrrol-2-yl)phenyl)-7-methylimidazo[1,2-a]pyridin-3-yl)methyl)morpholine-4-carboxylate], the IC50 was below 0.01 µM in data set [1] and 14.3 µM in data set [2]. In addition, the Folds of selectivity entry in data set [2] was “A (key: A: folds of selectivity >1000; B: 200< folds of selectivity ≤1000; C: folds of selectivity ≤200)”. Moreover, in data set [3], the CC50 at 48 h amounted to 13.2 µM. Also, the half-life in data set [4] is 61 min; in data set [5], 4.91 min; in data set [6] it was 4.38 min.
Consider `COC(=O)N1CCO[C@@H](Cc2c(-c3c(F)cc(-c4cc[nH]n4)cc3F)nc3cc(C)ccn23)C1` [Compound 15, methyl (S)-2-((2-(2,6-difluoro-4-(1H-pyrazol-3-yl)phenyl)-7-methylimidazo[1,2-a]pyridin-3-yl)methyl)morpholine-4-carboxylate], for which the IC50 in data set [1] is below 0.01 µM; in data set [2] it was 21.6 µM. Besides, in data set [2], the Folds of selectivity entry is recorded as “B (key: A: folds of selectivity >1000; B: 200< folds of selectivity ≤1000; C: folds of selectivity ≤200)”. The molecule further showed a CC50 at 48 h in data set [3] of 52.6 µM. Besides, the values for the half-life in data set [4], in data set [5] and in data set [6] were 191 min, 25.4 min and 16.5 min, respectively.
In the case of `COC(=O)N1CCO[C@@H](Cc2c(-c3c(F)cc(-c4ccccn4)cc3F)nc3cc(C)ccn23)C1` [Compound 17, methyl (S)-2-((2-(2,6-difluoro-4-(pyridin-2-yl)phenyl)-7-methylimidazo[1,2-a]pyridin-3-yl)methyl)morpholine-4-carboxylate], the concentration for half-maximal inhibition (IC50) is 0.01 to 0.05 µM in data set [1] and 29.8 µM in data set [2]. For the same molecule, the Folds of selectivity result in data set [2] is “B (key: A: folds of selectivity >1000; B: 200< folds of selectivity ≤1000; C: folds of selectivity ≤200)”. For the same molecule, the CC50 at 48 h in data set [3] stood at 51 µM. The half-life in data set [4] turned out to be 998 min; in data set [5], 19.4 min; in data set [6] it was 8.61 min.
In the case of `CNC(=O)c1cc(F)c(-c2oc3cc(C)ccc3c2C[C@H]2CN(C(=O)OC)CCO2)c(F)c1` [Compound 53, methyl (S)-2-((2-(2,6-difluoro-4-(methylcarbamoyl)phenyl)-6-methylbenzofuran-3-yl)methyl)morpholine-4-carboxylate], in data set [1], the IC50 was below 0.01 µM. Further, the “Number of coughs and cough latency (in words)” value in data set [7] (30 mg/kg, compared with the blank vehicle or the condition before administration) was “can effectively reduce the number of coughs and prolong the cough latency”. Besides, the inhibition in vivo at 30 mg/kg is 51.7% in data set [7] (30 mg/kg, read-out: Cough inhibition rate Vs Baseline (%)) and 47.7% in data set [7] (30 mg/kg, read-out: Cough inhibition rate Vs Vehicle (%)). In addition, the “Ratio of quinine/water intake (in words)” value in the data set with Male SD rats (compared with the blank vehicle) was “almost unaffected”. Moreover, the “Quinine/tap water* 100%” value with Male SD rats (Table 8, rats, single intraperitoneal injection, water intake within 15 min, 0.3 mM quinine) turned out to be 7.65%.
Consider `COC(=O)N1CCO[C@@H](Cc2c(-c3cnc(-n4cccn4)cc3C)nc3cc(C)ccn23)C1` [Compound 168, methyl (S)-2-((7-methyl-2-(4-methyl-6-(1H-pyrazol-1-yl)pyridin-3-yl)imidazo[1,2-a]pyridin-3-yl)methyl)morpholine-4-carboxylate], for which the half-inhibitory concentration (IC50) is 0.01 to 0.05 µM in data set [1] and above 60 µM in data set [2]. Also, the Folds of selectivity result in data set [2] is reported as “A (key: A: folds of selectivity >1000; B: 200< folds of selectivity ≤1000; C: folds of selectivity ≤200)”. In data set [3], the CC50 at 48 h is above 100 µM. Also, the half-life in data set [4] was found to be 523 min; in data set [5], 57.6 min; in data set [6], 29.2 min.
`COC(=O)N1CCO[C@@H](Cc2c(-c3c(F)cc(N4CC=CC4=O)cc3F)nc3cc(C)ccn23)C1` [Compound 169, methyl (S)-2-((2-(2,6-difluoro-4-(2-carbonyl-2,5-dihydro-1H-pyrrol-1-yl)phenyl)-7-methylimidazo[1,2-a]pyridin-3-yl)methyl)morpholine-4-carboxylate]: the Folds of selectivity entry in data set [2] is “A (key: A: folds of selectivity >1000; B: 200< folds of selectivity ≤1000; C: folds of selectivity ≤200)”. The 50% inhibitory concentration (IC50) in data set [2] is above 60 µM. The half-maximal cytotoxic concentration (CC50) at 48 h in data set [3] was above 100 µM. The half-life in data set [4] was 828 min; in data set [5] it was 35.5 min; in data set [6] it was 164 min.
For the molecule `COC(=O)N1CCO[C@@H](Cc2c(-c3c(F)cc(S(N)(=O)=O)cc3F)nc3cc(C)ccn23)C1` [Compound 171, methyl (S)-2-((2-(2,6-difluoro-4-sulfamoylphenyl)-7-methylimidazo[1,2-a]pyridin-3-yl)methyl)morpholine-4-carboxylate], the 50% inhibitory concentration (IC50) stood at 0.0021 µM in data set [1] and 36.8 µM in data set [2]. In addition, in data set [2], the Folds of selectivity is 45975. It took 200 µM to reach half-maximal cytotoxicity in data set [3] (CC50 at 48 h). For the same molecule, the half-life in data set [4] was determined as 523 min; in data set [5] it was 8.48 min; in data set [6], 140 min.
Take `CNC(=O)c1cc(F)c(-c2nc3cc(C)ccn3c2C[C@H]2CN(C(=O)OC)CCO2)c(F)c1` [Positive compound 1, methyl (S)-2-((2-(2,6-difluoro-4-(4-methylcarbamoyl)phenyl)-7-methylimidazo[1,2-a]pyridin-3-yl)methyl)morpholine-4-carboxylate, reference compound]: in data set [2], the Folds of selectivity is above 5217. The “Cough inhibition rate Vs Baseline (%)” value in data set [7] (30 mg/kg) was 47.0%. Also, the “Cough inhibition rate Vs Vehicle (%)” value in data set [7] (30 mg/kg) amounted to 42.6%. Also, the Mean cough latency came to 226.75 in data set [7] (after administration, 30 mg/kg) and 80.13 in data set [7] (setting [8]). Besides, the “Mean number of coughs” value in data set [7] (after administration, 30 mg/kg) was 9.88; in data set [7] (setting [8]), 18.63. This molecule also came in with a cytotoxic concentration (CC50) at 48 h in data set [3] of 128 µM. Besides, the half-life came out at 1450 min in data set [4], 53.4 min in data set [5] and 112 min in data set [6].
